Tests used:
[1] = Au(I)-mediated imine macrocyclisation (JohnPhosAu(MeCN)SbF6 2 equiv, Et4NBr 16 equiv) then in situ NaBH4 reduction to cyclic amine, HPLC isolation; details: the molecule shown is the open-chain precursor, DMF, 8.0 mM, 37.0 °C, 2 steps
[2] = Au(I)-mediated imine macrocyclisation: N-terminal amine adds (Markovnikov) to N-propargyl backbone amide alkyne; JohnPhosAu(MeCN)SbF6 2 equiv, Et4NBr 16 equiv; in situ NaBH4 10 equiv reduction 15 min for quantification; details: 24-membered ring, DMF, 8.0 mM, 37.0 °C

For `C#CCN(CC(N)=O)C(=O)CNC(=O)[C@H](C)NC(=O)[C@H](CCCNC(=N)N)NC(=O)[C@H](Cc1ccc(O)cc1)NC(=O)[C@H](CC(C)C)NC(=O)[C@H](CCCCN)NC(=O)CNC(=O)OCC1c2ccccc2-c2ccccc21` [Fmoc-Gly-Lys-Leu-Tyr-Arg-Ala-Gly-(N-propargyl)Gly-NH2], the ring closure, yield over several steps ([1]; 25-membered ring, 1.0 h) was 61%.
`CC(C)C[C@@H]1NC(=O)CNC(=O)[C@H](Cc2ccccc2)NC(C)CN([C@@H](CC(=O)O)C(N)=O)C(=O)CNC(=O)[C@H](C)NC(=O)[C@H](CCCNC(=N)N)NC(=O)[C@H](Cc2ccc(O)cc2)NC1=O` (stereo partly drawn) [H-Phe-Gly-Leu-Tyr-Arg-Ala-Gly-(N-propargyl)Asp-NH2] gave a ring closure, conversion by HPLC ([2]; from C#CCN(C(=O)CNC(=O)[C@H](C)NC(=O)[C@H](CCCNC(=N)N)NC(=O)[C@H](Cc1ccc(O)cc1)NC(=O)[C@H](CC(C)C)NC(=O)CNC(=O)[C@@H](N)Cc1ccccc1)[C@@H](CC(=O)O)C(N)=O, 1.0 h) of 56%.
Compound `C#CCN(CC(N)=O)C(=O)CNC(=O)[C@H](C)NC(=O)[C@H](CCCNC(=N)N)NC(=O)[C@H](Cc1ccc(O)cc1)NC(=O)[C@H](CC(C)C)NC(=O)CNC(=O)[C@@H](N)Cc1ccccc1` [H-Phe-Gly-Leu-Tyr-Arg-Ala-Gly-(N-propargyl)Gly-NH2] has a ring closure, yield over several steps ([1]; 24-membered ring, 0.5 h) of 75%.
For `CC(C)C[C@@H]1NC(=O)CNC(=O)[C@H](Cc2ccccc2)NC(C)CN(CC(N)=O)C(=O)CNC(=O)[C@H](C)NC(=O)[C@H](CCCNC(=N)N)NC(=O)[C@H](Cc2ccc(O)cc2)NC1=O` (stereo partly drawn) [H-Phe-Gly-Leu-Tyr-Arg-Ala-Gly-(N-propargyl)Gly-NH2], the ring closure, conversion by HPLC ([2]; from C#CCN(CC(N)=O)C(=O)CNC(=O)[C@H](C)NC(=O)[C@H](CCCNC(=N)N)NC(=O)[C@H](Cc1ccc(O)cc1)NC(=O)[C@H](CC(C)C)NC(=O)CNC(=O)[C@@H](N)Cc1ccccc1, 0.5 h) was 85%.
In the case of `C#CCN(C(=O)CNC(=O)[C@H](C)NC(=O)[C@H](CCCNC(=N)N)NC(=O)[C@H](Cc1ccc(O)cc1)NC(=O)[C@H](CC(C)C)NC(=O)CNC(=O)[C@@H](N)Cc1ccccc1)[C@H](C(N)=O)[C@@H](C)CC` [H-Phe-Gly-Leu-Tyr-Arg-Ala-Gly-(N-propargyl)Ile-NH2], the ring closure, yield over several steps ([1]; 24-membered ring, 1.0 h) is reported as 60%.
With `CC[C@H](C)[C@@H](C(N)=O)N1CC(C)N[C@@H](Cc2ccccc2)C(=O)NCC(=O)N[C@@H](CC(C)C)C(=O)N[C@@H](Cc2ccc(O)cc2)C(=O)N[C@@H](CCCNC(=N)N)C(=O)N[C@@H](C)C(=O)NCC1=O` (stereo partly drawn) [H-Phe-Gly-Leu-Tyr-Arg-Ala-Gly-(N-propargyl)Ile-NH2] the ring closure, conversion by HPLC ([2]; from C#CCN(C(=O)CNC(=O)[C@H](C)NC(=O)[C@H](CCCNC(=N)N)NC(=O)[C@H](Cc1ccc(O)cc1)NC(=O)[C@H](CC(C)C)NC(=O)CNC(=O)[C@@H](N)Cc1ccccc1)[C@H](C(N)=O)[C@@H](C)CC, 1.0 h) was 85%.
With `CC(C)C[C@@H]1NC(=O)CNC(=O)[C@H](Cc2ccccc2)NC(C)CN([C@@H](Cc2ccccc2)C(N)=O)C(=O)CNC(=O)[C@H](C)NC(=O)[C@H](CCCNC(=N)N)NC(=O)[C@H](Cc2ccc(O)cc2)NC1=O` (stereo partly drawn) [H-Phe-Gly-Leu-Tyr-Arg-Ala-Gly-(N-propargyl)Phe-NH2] the ring closure, conversion by HPLC ([2]; from C#CCN(C(=O)CNC(=O)[C@H](C)NC(=O)[C@H](CCCNC(=N)N)NC(=O)[C@H](Cc1ccc(O)cc1)NC(=O)[C@H](CC(C)C)NC(=O)CNC(=O)[C@@H](N)Cc1ccccc1)[C@@H](Cc1ccccc1)C(N)=O, 1.0 h) was 88%.
For `C#CCN(CC(N)=O)C(=O)[C@@H](NC(=O)[C@H](C)NC(=O)[C@H](CCCNC(=N)N)NC(=O)[C@H](Cc1ccc(O)cc1)NC(=O)[C@H](CC(C)C)NC(=O)CNC(=O)[C@@H](N)Cc1ccccc1)[C@@H](C)CC` [H-Phe-Gly-Leu-Tyr-Arg-Ala-Ile-(N-propargyl)Gly-NH2], the ring closure, yield over several steps ([1]; 24-membered ring, 1.0 h) was 66%.
Work on `CC[C@H](C)[C@@H]1NC(=O)[C@H](C)NC(=O)[C@H](CCCNC(=N)N)NC(=O)[C@H](Cc2ccc(O)cc2)NC(=O)[C@H](CC(C)C)NC(=O)CNC(=O)[C@H](Cc2ccccc2)NC(C)CN(CC(N)=O)C1=O` (stereo partly drawn) [H-Phe-Gly-Leu-Tyr-Arg-Ala-Ile-(N-propargyl)Gly-NH2] yielded a ring closure, conversion by HPLC ([2]; from C#CCN(CC(N)=O)C(=O)[C@@H](NC(=O)[C@H](C)NC(=O)[C@H](CCCNC(=N)N)NC(=O)[C@H](Cc1ccc(O)cc1)NC(=O)[C@H](CC(C)C)NC(=O)CNC(=O)[C@@H](N)Cc1ccccc1)[C@@H](C)CC, 1.0 h) of 89%.
In the case of `CC(C)C[C@@H]1NC(=O)CNC(=O)[C@H](Cc2ccccc2)NC(C)CN(CC(N)=O)C(=O)[C@H](CO)NC(=O)[C@H](C)NC(=O)[C@H](CCCNC(=N)N)NC(=O)[C@H](Cc2ccc(O)cc2)NC1=O` (stereo partly drawn) [H-Phe-Gly-Leu-Tyr-Arg-Ala-Ser-(N-propargyl)Gly-NH2], the ring closure, conversion by HPLC ([2]; from C#CCN(CC(N)=O)C(=O)[C@H](CO)NC(=O)[C@H](C)NC(=O)[C@H](CCCNC(=N)N)NC(=O)[C@H](Cc1ccc(O)cc1)NC(=O)[C@H](CC(C)C)NC(=O)CNC(=O)[C@@H](N)Cc1ccccc1, 1.0 h) is reported as 64%.
`CC(C)C[C@@H]1NC(=O)CNC(=O)[C@H](Cc2ccccc2)NC(C)CN(CC(N)=O)C(=O)CNC(=O)[C@H](C)NC(=O)[C@H](CC(=O)O)NC(=O)[C@H](Cc2ccc(O)cc2)NC1=O` (stereo partly drawn) [H-Phe-Gly-Leu-Tyr-Asp-Ala-Gly-(N-propargyl)Gly-NH2] gave a ring closure, conversion by HPLC ([2]; from C#CCN(CC(N)=O)C(=O)CNC(=O)[C@H](C)NC(=O)[C@H](CC(=O)O)NC(=O)[C@H](Cc1ccc(O)cc1)NC(=O)[C@H](CC(C)C)NC(=O)CNC(=O)[C@@H](N)Cc1ccccc1, 1.0 h) of 82%.
For `CC(C)C[C@@H]1NC(=O)CNC(=O)[C@H](Cc2ccccc2)NC(C)CN(CC(N)=O)C(=O)CNC(=O)[C@H](C)NC(=O)[C@H](CCC(N)=O)NC(=O)[C@H](Cc2ccc(O)cc2)NC1=O` (stereo partly drawn) [H-Phe-Gly-Leu-Tyr-Gln-Ala-Gly-(N-propargyl)Gly-NH2], the ring closure, conversion by HPLC ([2]; from C#CCN(CC(N)=O)C(=O)CNC(=O)[C@H](C)NC(=O)[C@H](CCC(N)=O)NC(=O)[C@H](Cc1ccc(O)cc1)NC(=O)[C@H](CC(C)C)NC(=O)CNC(=O)[C@@H](N)Cc1ccccc1, 1.0 h) was 64%.
With `CC(C)C[C@@H]1NC(=O)CNC(=O)[C@H](Cc2ccccc2)NC(C)CN(CC(N)=O)C(=O)CNC(=O)[C@H](C)NC(=O)[C@H](CCC(=O)O)NC(=O)[C@H](Cc2ccc(O)cc2)NC1=O` (stereo partly drawn) [H-Phe-Gly-Leu-Tyr-Glu-Ala-Gly-(N-propargyl)Gly-NH2] the ring closure, conversion by HPLC ([2]; from C#CCN(CC(N)=O)C(=O)CNC(=O)[C@H](C)NC(=O)[C@H](CCC(=O)O)NC(=O)[C@H](Cc1ccc(O)cc1)NC(=O)[C@H](CC(C)C)NC(=O)CNC(=O)[C@@H](N)Cc1ccccc1, 1.0 h) was 83%.
Compound `CC(C)C[C@@H]1NC(=O)CNC(=O)[C@H](Cc2ccccc2)NC(C)CN(CC(N)=O)C(=O)CNC(=O)[C@H](C)NC(=O)[C@H](Cc2c[nH]cn2)NC(=O)[C@H](Cc2ccc(O)cc2)NC1=O` (stereo partly drawn) [H-Phe-Gly-Leu-Tyr-His-Ala-Gly-(N-propargyl)Gly-NH2] has a ring closure, conversion by HPLC ([2]; from C#CCN(CC(N)=O)C(=O)CNC(=O)[C@H](C)NC(=O)[C@H](Cc1c[nH]cn1)NC(=O)[C@H](Cc1ccc(O)cc1)NC(=O)[C@H](CC(C)C)NC(=O)CNC(=O)[C@@H](N)Cc1ccccc1, 1.0 h) of 57%.
`CC(C)C[C@@H]1NC(=O)CNC(=O)[C@H](Cc2ccccc2)NC(C)CN(CC(N)=O)C(=O)CNC(=O)[C@H](C)NC(=O)[C@@H]2CCCN2C(=O)[C@H](Cc2ccc(O)cc2)NC1=O` (stereo partly drawn) [H-Phe-Gly-Leu-Tyr-Pro-Ala-Gly-(N-propargyl)Gly-NH2] gave a ring closure, conversion by HPLC ([2]; from C#CCN(CC(N)=O)C(=O)CNC(=O)[C@H](C)NC(=O)[C@@H]1CCCN1C(=O)[C@H](Cc1ccc(O)cc1)NC(=O)[C@H](CC(C)C)NC(=O)CNC(=O)[C@@H](N)Cc1ccccc1, 1.0 h) of 77%.
Work on `C#CCN(CC(N)=O)C(=O)CNC(=O)[C@H](C)NC(=O)[C@H](CO)NC(=O)[C@H](Cc1ccc(O)cc1)NC(=O)[C@H](CC(C)C)NC(=O)CNC(=O)[C@@H](N)Cc1ccccc1` [H-Phe-Gly-Leu-Tyr-Ser-Ala-Gly-(N-propargyl)Gly-NH2] yielded a ring closure, yield over several steps ([1]; 24-membered ring, 1.0 h) of 60%.
With `CC(C)C[C@@H]1NC(=O)CNC(=O)[C@H](Cc2ccccc2)NC(C)CN(CC(N)=O)C(=O)CNC(=O)[C@H](C)NC(=O)[C@H](CO)NC(=O)[C@H](Cc2ccc(O)cc2)NC1=O` (stereo partly drawn) [H-Phe-Gly-Leu-Tyr-Ser-Ala-Gly-(N-propargyl)Gly-NH2] the ring closure, conversion by HPLC ([2]; from C#CCN(CC(N)=O)C(=O)CNC(=O)[C@H](C)NC(=O)[C@H](CO)NC(=O)[C@H](Cc1ccc(O)cc1)NC(=O)[C@H](CC(C)C)NC(=O)CNC(=O)[C@@H](N)Cc1ccccc1, 1.0 h) was 74%.
Compound `CC(C)C[C@@H]1NC(=O)CNC(=O)[C@H](CO)NC(C)CN(CC(N)=O)C(=O)CNC(=O)[C@H](C)NC(=O)[C@H](CCCNC(=N)N)NC(=O)[C@H](Cc2ccc(O)cc2)NC1=O` (stereo partly drawn) [H-Ser-Gly-Leu-Tyr-Arg-Ala-Gly-(N-propargyl)Gly-NH2] has a ring closure, conversion by HPLC ([2]; from C#CCN(CC(N)=O)C(=O)CNC(=O)[C@H](C)NC(=O)[C@H](CCCNC(=N)N)NC(=O)[C@H](Cc1ccc(O)cc1)NC(=O)[C@H](CC(C)C)NC(=O)CNC(=O)[C@@H](N)CO, 1.0 h) of 75%.
In the case of `CC(C)C[C@@H]1NC(=O)CNC(=O)[C@H](Cc2c[nH]c3ccccc23)NC(C)CN(CC(N)=O)C(=O)CNC(=O)[C@H](C)NC(=O)[C@H](CCCNC(=N)N)NC(=O)[C@H](Cc2ccc(O)cc2)NC1=O` (stereo partly drawn) [H-Trp-Gly-Leu-Tyr-Arg-Ala-Gly-(N-propargyl)Gly-NH2], the ring closure, conversion by HPLC ([2]; from C#CCN(CC(N)=O)C(=O)CNC(=O)[C@H](C)NC(=O)[C@H](CCCNC(=N)N)NC(=O)[C@H](Cc1ccc(O)cc1)NC(=O)[C@H](CC(C)C)NC(=O)CNC(=O)[C@@H](N)Cc1c[nH]c2ccccc12, 1.0 h) is reported as 83%.

Reference: paper PMC8949771, “Gold(I)-Mediated Rapid Cyclization of Propargylated Peptides via Imine Formation” (Journal of the American Chemical Society, 2022)
